Reference: patent publication EP1954678B1, “NOVEL NK1 AND NK2 ANTAGONISTS” (Abbott Products GmbH, priority 2005, dated 2007)
Like-named read-outs stand apart in the source and are kept apart here.

What was measured:
NK2 receptors = molecular target: T1, NK2 receptors (Cavia porcellus, UniProt Q64077); test: Functional NK2 antagonism on isolated guinea pig gall-bladder preparations (NKA induced contraction); design: from tissue; host or cells: guinea pig gall-bladder preparations; species or system Pirbright-White guinea pigs
T1 sequence (Q64077 1-402): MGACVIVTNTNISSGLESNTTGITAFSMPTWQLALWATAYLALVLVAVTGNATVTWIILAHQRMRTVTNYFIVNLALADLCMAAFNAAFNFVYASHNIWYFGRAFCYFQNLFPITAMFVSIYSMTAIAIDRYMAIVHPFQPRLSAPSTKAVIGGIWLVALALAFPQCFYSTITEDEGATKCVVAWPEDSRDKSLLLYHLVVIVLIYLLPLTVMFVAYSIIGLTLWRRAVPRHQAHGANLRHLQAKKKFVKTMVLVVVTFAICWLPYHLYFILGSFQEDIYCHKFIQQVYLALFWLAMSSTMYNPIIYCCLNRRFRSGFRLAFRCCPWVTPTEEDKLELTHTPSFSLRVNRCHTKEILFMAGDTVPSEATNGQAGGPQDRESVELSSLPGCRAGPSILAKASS
Description: The NK2 receptor-antagonising action of the test substances was determined on isolated gall-bladder preparations from Pirbright-White guinea pigs, held in an oxygen-saturated nutrient solution. To this end, the preparations were fastened on one hand in the nutrient solution to organ holders and on the other hand on a force meter by a thread.
The concentration of the test substances was increased iteratively in the subsequent experiments as a function of the result in logarithmic whole or half steps, until at least one concentration above or below 50% inhibition of contraction was determined (up to at most 10^-5 mol/l). For each concentration, the average value of inhibition of contraction was calculated from 2 to 4 preparations. In each case, the concentration of half-maximum inhibition (IC50) per test substance was calculated as characteristic variable.

human NK1 receptors = molecular target: T2, human NK1 receptors (Homo sapiens, UniProt P25103); test: Binding of the test substances to NK1 receptors in vitro ([3H]-Substance P displacement, CHO cell membranes); conditions: [3H]-Substance P as ligand; membranes of CHO cells expressing the human NK1 receptor; Ki calculated from IC50; read-out: pKi (NK1) (converted)
T2 construct: expressed in transfected cells; host or cells: CHO cells (membrane preparation)
Description: In The Netherlands, the affinity of the test substances to human NK1 receptors was measured in vitro.
The receptor binding studies were performed with [^3H]-Substance P as ligand. For the binding test, different samples of a membrane preparation of CHO cells (= egg cells of the Chinese hamster, Chinese hamster oocytes), which express the human NK1 receptor ("Accession Number" of the associated nucleic acid sequence = M74290; "Accession Number" of the associated protein sequence = P25103; cf. Takeda, Y.; Chou, K. B., Takeda, J.; Sachais, B.S. and Krause, J. E; Biochemical and Biophysical Research Communications, 179(3) (1991) 1232 - 1240), were incubated with a solution of the marked ligand, with the incubation mixtures containing no test substance or additions of different concentrations of test substance. Then, separation of bound and free ligands was performed in each of the samples with the aid of glass-fibre filtration. The fraction remaining in the filter was washed several times with buffer solution and then the radioactivity of the fraction remaining in the filter was measured using a beta scintillation counter.
For the compounds of Examples 1 to 14, that concentration which effects half maximum displacement of the bound ligand was determined as IC50 of the respective test substance. From this, the corresponding inhibition constant (Ki value) of the test substance was calculated, and was stated as the negative common logarithm of the Ki value (= pKi value). The pKi value is a measurement of the affinity of the test substances to human NK1 receptors.

NK1 receptors [1] = molecular target: T3, NK1 receptors (Cavia porcellus, UniProt P30547); test: Functional NK1 antagonism on isolated guinea pig aorta ring preparations (Substance P induced relaxation); design: from tissue; host or cells: guinea pig aorta ring preparations; species or system Pirbright-White guinea pigs
Description: In The Netherlands, the action antagonistic to NK1 receptors of the test substances was measured in vitro on isolated ring preparations, kept in an oxygenated nutrient solution, of the aortas of Pirbright-White guinea pigs.
In order to measure the contraction of the vessel muscles, the preparations were fixed to a hook, joined by a thread to a force measuring apparatus and the contractions were recorded in each case on a plotter. The aorta preparations were tonicised with phenylephrine. […] The relaxations before and after the administration of the test substance were quantified in percent. The effective concentration of the half maximum inhibition of the relaxation of the tone (= EC50) was calculated. The negative common logarithm of the EC50 value (= pEC50) was given as characteristic variable. The pEC50 value is a measurement of the functional effectiveness of the test substances on NK1 receptors.

NK1 receptors [2] = molecular target: T3, NK1 receptors; test: NK-1-receptor-antagonistic effectiveness in vivo in anaesthetised guinea pigs (NKA test stimulus, early hypotension); design: from tissue; host or cells: whole anaesthetised guinea pig (in vivo); species or system Pirbright-White guinea pigs; conditions: for ED50: guinea pig; for oral activity as NK1 receptor antagonist: result in words, oral administration
Text: The NK-1- and NK-2-antagonistic activities of the test substances were investigated in anaesthetised guinea pigs in each case after intravenous (= i.v.) and oral (= p.o.) administration in vivo. With the present test model it is possible to detect both NK-2-antagonistic effects in three different organ systems (respiratory tracts, colon and circulation) and NK-1-antagonistic effects (rapid drop in blood pressure) in an animal simultaneously.
Pirbright-White guinea pigs of a body weight of 500-700 g were anaesthetised with ketamine/xylazine (67/13 mg/kg subcutaneously, initial dose, further doses administered as required). The animals were provided with an intravenous catheter in order to administer the substance and an intra-arterial catheter to measure the blood pressure. The animals were artificially ventilated via a tracheal cannula and the respiratory pressure was recorded by means of a pressure transducer. A balloon was introduced into the distal colon of the animals for manometric recording of colon motility by means of a pressure transducer. Blood pressure, heart rate, respiratory pressure and colonic pressure were measured continuously for each animal and plotted on a recorder and by means of a digital data-processing system. […] The second phase of delayed hypotension (= phase of maximum hypotension after 2-5 min.) on the other hand is mediated via NK-2 receptors, since they can be blocked by specific NK-2 receptor antagonists. […] Table 6: NK-1- and NK-2-receptor-antagonistic effective-ness of the test substances of Formula I on guinea pigs in vivo after intravenous administration
These ED50 values obtained from cumulative dose effect curves are plotted in table 6.
The antagonistic effects of the test substances were then determined as "area under the curve" ("AUC") over the investigation period after administration of the test substances (1 - 180 min after administration) and the ED50 values after oral administration obtained therefrom were plotted in table 7. Table 7: NK-1- and NK-2-receptor-antagonistic effective-ness of the test substances of Formula I on guinea pigs in vivo after oral administration

[3] = molecular target: T4, cloned human NK1 receptors (Homo sapiens, UniProt P25103); test: Ca2+ measurements using FLIPR for NK1 activity in CHO cells; format: cell-based; conditions: substance P 10^-8 M as agonist; compound applied 7 min before; pA2 calculated from IC50
T4 construct: expressed in transfected cells
Text: The NK receptor is coupled to Gq.
All steps were done under sterile conditions. […] The results are summarized in table 5: Table 5: pA2 data for NK1 and NK2: […]

[4] = iv, read-out: ED50 iv after 1 min (cumulative) NK1 (early hypotension)
[5] = oral, from AUC of antagonistic effect 1 - 180 min after administration, read-out: ED50 AUC1-180 min oral NK1 (early hypotension)

T2 sequence (P25103 whole entry): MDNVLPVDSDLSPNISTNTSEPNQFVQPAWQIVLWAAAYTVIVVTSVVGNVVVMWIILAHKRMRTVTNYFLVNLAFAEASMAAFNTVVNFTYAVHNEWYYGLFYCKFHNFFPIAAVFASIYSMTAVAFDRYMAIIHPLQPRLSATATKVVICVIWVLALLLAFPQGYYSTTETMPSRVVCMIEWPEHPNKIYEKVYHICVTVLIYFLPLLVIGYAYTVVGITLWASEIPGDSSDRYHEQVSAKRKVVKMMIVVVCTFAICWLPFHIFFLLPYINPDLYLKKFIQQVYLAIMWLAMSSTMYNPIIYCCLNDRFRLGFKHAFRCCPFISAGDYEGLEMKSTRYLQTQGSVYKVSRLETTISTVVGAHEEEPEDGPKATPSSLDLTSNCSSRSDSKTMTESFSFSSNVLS
T3 sequence (P30547 whole entry): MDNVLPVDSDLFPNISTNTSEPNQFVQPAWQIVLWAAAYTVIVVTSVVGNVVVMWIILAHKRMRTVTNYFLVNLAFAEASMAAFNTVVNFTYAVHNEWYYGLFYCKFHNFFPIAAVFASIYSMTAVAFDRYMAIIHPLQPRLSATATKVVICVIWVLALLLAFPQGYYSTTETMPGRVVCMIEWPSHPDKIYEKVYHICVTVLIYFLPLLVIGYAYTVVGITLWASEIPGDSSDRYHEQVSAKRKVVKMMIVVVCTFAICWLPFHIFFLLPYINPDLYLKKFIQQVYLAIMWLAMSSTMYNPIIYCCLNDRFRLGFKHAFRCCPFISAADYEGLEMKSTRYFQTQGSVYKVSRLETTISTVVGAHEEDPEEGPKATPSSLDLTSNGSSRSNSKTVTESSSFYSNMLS
T4 sequence (P25103 whole entry): as the sequence (P25103 whole entry) above

IC50 (NK2 receptors) [nM] | Ki (human NK1 receptors) [nM] | EC50 (NK1 receptors [1]) [nM] | ED50 (NK1 receptors [2]; [4]) [µmol/kg] | ED50 (NK1 receptors [2]; [5]) [µmol/kg] | oral activity as NK1 receptor antagonist (NK1 receptors [2]) | Kb [3] [nM] | Compound
2 | 3.98 | 0.398 | 0.077 | 22.9 | active orally | 1.26 | CN(C[C@@H](CCN1CCN([C@@H](c2ccco2)[C@H](O)CO)CC1)c1ccc(Cl)c(Cl)c1)C(=O)c1cc(C#N)cc2ccccc12 [Compound 1, 3-cyano-N-[(2S)-2-(3,4-dichlorophenyl)-4-{4-[(1R,2S)-1-(2-furyl)-2,3-dihydroxypropyl]piperazin-1-yl}butyl]-N-methyl-1-naphthamide]
20 | 3.16 | 0.316 | < 0.01 | 15.2 | active orally |  | CN(C[C@@H](CCN1CCN([C@@H](c2ccco2)[C@H](O)[C@@H](O)[C@H](O)CO)CC1)c1ccc(Cl)c(Cl)c1)C(=O)c1cc(C#N)cc2ccccc12 [Compound 2, 3-cyano-N-[(2S)-2-(3,4-dichlorophenyl)-4-{4-[(1R,2S,3R,4R)-1-(2-furyl)-2,3,4,5-tetrahydroxypentyl]piperazin-1-yl}butyl]-N-methyl-1-naphthamide]
39.8 | 5.01 | 0.398 | 0.071 |  |  |  | CN(C[C@@H](CCN1CCN(C(CO)(CO)c2ccco2)CC1)c1ccc(Cl)c(Cl)c1)C(=O)c1cc(C#N)cc2ccccc12 [Compound 6, 3-cyano-N-[(2S)-2-(3,4-dichlorophenyl)-4-{4-[1-(2-furyl)-2-hydroxy-1-(hydroxymethyl)ethyl]piperazin-1-yl}butyl]-N-methyl-1-naphthamide]
15.8 | 7.94 | 1.26 | 0.093 |  |  |  | CN(C[C@@H](CCN1CCN([C@@H](c2ccco2)[C@H]2COC(=O)O2)CC1)c1ccc(Cl)c(Cl)c1)C(=O)c1cc(C#N)cc2ccccc12 [Compound 11, 3-cya no-N-[(2S)-2-(3,4-dichlorophenyl)-4-(4-{(R)-2-furyl[(4S)-2-oxo-1,3-dioxolan-4-yl]methyl}piperazin-1-yl)butyl]-N-methyl-1-naphthamide]
